Test results from the supplement of paper PMC11061612.

How the values were obtained:
Test in all cases: Bliss excess, mean over the matrix (fraction); higher = more synergy
[1] = test system: KYSE-150 (Esophageal Squamous Cell Carcinoma)
Summary of the method: (§1)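 Cell lines in DMEM/F12 or RPMI with 10% FBS were plated in 1536-well plates, held 24 hours at 37°C, 5% CO2, then given two-drug dose matrices for 72 hours (DMSO typically 0.2%). Viability was read by CellTiter-Glo 2.0 luminescence and scaled as inhibition from 0 (vehicle wells) to 1 (blank wells). Combination Emax is the second-highest inhibition in the matrix; Bliss excess is observed combination effect minus expected EA + EB − EA·EB, EA and EB being single-agent effects.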

[2] = test system: HuP-T3 (Pancreatic Carcinoma)
Summary of the method: as §1

[3] = test system: NCI-H513 (Other Solid Carcinomas)
Summary of the method: as §1

[4] = test system: HSC-2 (Oral Cavity Carcinoma)
Summary of the method: as §1

[5] = test system: TGBC11TKB (Gastric Carcinoma)
Summary of the method: as §1

EW-18 (Ewing's Sarcoma) = test system: EW-18 (Ewing's Sarcoma)
Summary of the method: as §1

NH-12 (Neuroblastoma) = test system: NH-12 (Neuroblastoma)
Summary of the method: as §1

[6] = test system: OCUB-M (Breast Carcinoma)
Summary of the method: as §1

BT-20 (Breast Carcinoma) = test system: BT-20 (Breast Carcinoma)
Summary of the method: as §1

A704 (Kidney Carcinoma) = test system: A704 (Kidney Carcinoma)
Summary of the method: as §1

[7] = test system: EMC-BAC-2 (Non-Small Cell Lung Carcinoma)
Summary of the method: as §1

IMR-5 (Neuroblastoma) = test system: IMR-5 (Neuroblastoma)
Summary of the method: as §1

[8] = test system: NCI-H322M (Lung Adenocarcinoma)
Summary of the method: as §1

[9] = test system: DG-75 (Burkitt's Lymphoma)
Summary of the method: as §1

[10] = test system: NCI-H2347 (Lung Adenocarcinoma)
Summary of the method: as §1

U-87-MG (Glioblastoma) = test system: U-87-MG (Glioblastoma)
Summary of the method: as §1

RPMI-7951 (Melanoma) = test system: RPMI-7951 (Melanoma)
Summary of the method: as §1

[11] = test system: NCI-H2405 (Lung Adenocarcinoma)
Summary of the method: as §1

[12] = test system: SCC-9 (Oral Cavity Carcinoma)
Summary of the method: as §1

[13] = test system: SNU-C1 (Colorectal Carcinoma)
Summary of the method: as §1

Row | Compound | Bliss excess [1] | Bliss excess [2] | Bliss excess [3] | Bliss excess [4] | Bliss excess [5] | Bliss excess (EW-18 (Ewing's Sarcoma)) | Bliss excess (NH-12 (Neuroblastoma)) | Bliss excess [6] | Bliss excess (BT-20 (Breast Carcinoma)) | Bliss excess (A704 (Kidney Carcinoma)) | Bliss excess [7] | Bliss excess (IMR-5 (Neuroblastoma)) | Bliss excess [8] | Bliss excess [9] | Bliss excess [10] | Bliss excess (U-87-MG (Glioblastoma)) | Bliss excess (RPMI-7951 (Melanoma)) | Bliss excess [11] | Bliss excess [12] | Bliss excess [13]
1 | CN(CCO)CC[C@H](CSc1ccccc1)Nc1ccc(S(=O)(=O)NC(=O)c2ccc(N3CCC([C@@H](O)c4ccccc4-c4ccc(Cl)cc4)CC3)cc2)cc1S(=O)(=O)C(F)(F)F [AZD4320] + Cn1cnc2c(F)c(Nc3ccc(Br)cc3Cl)c(C(=O)NOCCO)cc21 [Selumetinib] (first compound max 1 µM, 7x7, partner max 3 µM) | -0.0152 | -0.0166 | 0.0445 | 0.0195 | 0.0843 | 0.0109 | 0.0593 | 0.0206 | 0.0937 | -0.075 | 0.0022 | 0.0409 | 0.0818 | -0.0512 | 0.0288 | -0.0117 | -0.006 | 0.0717 | 0.005 | –
2 | C[C@@H](c1ccc2nccn2c1)n1nnc2ncc(-c3cnn(C)c3)nc21 [Savolitinib] + CN(CC[C@H](CSC1=CC=CC=C1)NC2=C(C=C(C=C2)S(=O)(=O)NC(=O)C3=CC=C(C=C3)N4CCC(CC4)[C@H](C5=CC=CC=C5C6=CC=C(C=C6)Cl)O)S(=O)(=O)C(F)(F)F)CCO [AZD4320] (first compound max 1 µM, 7x7, partner max 1 µM) | -0.0775 | -0.0586 | -0.0473 | – | – | -0.0221 | -0.0131 | – | -0.0084 | -0.0766 | -0.0794 | -0.0399 | -0.0487 | -0.0338 | -0.0474 | -0.143 | -0.0203 | -0.0553 | – | –
3 | Cc1c2c(nn1C)CSCc1cc(n(C)n1)CSc1cc(c3ccccc3c1)OCCCc1c(C(=O)O)n(C)c3c-2c(Cl)ccc13 [AZD5991] + C1CN(CCC1(C(=O)N[C@@H](CCO)C2=CC=C(C=C2)Cl)N)C3=NC=NC4=C3C=CN4 [Capivasertib] (first compound max 1 µM, 7x7, partner max 3 µM) | 0.039 | -0.0186 | -0.0056 | 0.138 | 0.0116 | – | 0.0395 | 0.0321 | 0.131 | -0.065 | 0.0302 | 0.0045 | 0.0198 | -0.0281 | -0.0313 | 0.0264 | 0.0035 | -0.0402 | -0.0113 | -0.0004
4 | Cc1c2c(nn1C)CSCc1cc(n(C)n1)CSc1cc(c3ccccc3c1)OCCCc1c(C(=O)O)n(C)c3c-2c(Cl)ccc13 [AZD5991] + CCN(CCO)CCCOc1ccc2c(Nc3cc(CC(=O)Nc4cccc(F)c4)[nH]n3)ncnc2c1 [AZD2811] (first compound max 1 µM, 7x7, partner max 1 µM) | -0.0339 | -0.019 | -0.0026 | 0.0322 | 0.0266 | -0.0209 | -0.0331 | -0.0116 | 0.108 | -0.0462 | 0.0438 | -0.0117 | -0.0057 | 0.0704 | 0.0102 | 0.0065 | -0.0924 | -0.0164 | – | -0.0256
5 | Cc1c2c(nn1C)CSCc1cc(n(C)n1)CSc1cc(c3ccccc3c1)OCCCc1c(C(=O)O)n(C)c3c-2c(Cl)ccc13 [AZD5991] + Cc1cc2ncnn2cc1Nc1ncc2c(n1)n(C1CCOCC1)c(=O)n2C [AZD7648] (first compound max 1 µM, 7x7, partner max 10 µM) | -0.0195 | -0.0677 | -0.0127 | – | -0.0954 | -0.0254 | -0.061 | -0.0448 | -0.0139 | -0.0914 | -0.0141 | 0.0226 | -0.05 | 0.0116 | -0.0472 | -0.0311 | -0.0317 | -0.0391 | -0.0716 | -0.0742
6 | Cc1cc2ncnn2cc1Nc1ncc2c(n1)n(C1CCOCC1)c(=O)n2C [AZD7648] + O=C(c1cc(Cc2n[nH]c(=O)c3ccccc23)ccc1F)N1CCN(C(=O)C2CC2)CC1 [Olaparib] (first compound max 10 µM, 7x7, partner max 10 µM) | -0.0351 | -0.0254 | -0.0002 | -0.0277 | -0.0447 | -0.0427 | 0.0165 | -0.0467 | -0.0492 | -0.0821 | -0.0399 | 0.0328 | -0.0342 | 0.0465 | -0.0144 | – | 0.0044 | -0.0277 | -0.0438 | -0.0619
7 | CCc1c2c(nc3ccc(O)cc13)-c1cc3c(c(=O)n1C2)COC(=O)[C@]3(O)CC [SN-38] + CN(C)CCCOc1ccc(-c2ccc3ncc4c(c3c2)n(C2CCOCC2)c(=O)n4C)cn1 [AZD0156] (first compound max 0.3 µM, 7x7, partner max 1 µM) | 0.1 | 0.0438 | 0.0021 | 0.0085 | 0.0074 | -0.0607 | -0.0954 | 0.126 | 0.0684 | -0.0533 | 0.0414 | 0.0314 | 0.15 | 0.0751 | -0.0118 | – | 0.0647 | -0.0082 | 0.0484 | -0.0125
8 | Cc1cc2ncnn2cc1Nc1ncc2c(n1)n(C1CCOCC1)c(=O)n2C [AZD7648] + CN(C)CCCOc1ccc(-c2ccc3ncc4c(c3c2)n(C2CCOCC2)c(=O)n4C)cn1 [AZD0156] (first compound max 10 µM, 7x7, partner max 1 µM) | 0.0054 | -0.0065 | -0.0145 | 0.0203 | -0.0224 | -0.0268 | -0.0153 | -0.0055 | 0.0154 | -0.0152 | 0.0137 | 0.009 | 0.0083 | 0.0226 | 0.0159 | – | -0.0164 | -0.0074 | -0.0144 | -0.0423
9 | CN(C)CCCOc1ccc(-c2ccc3ncc4c(c3c2)n(C2CCOCC2)c(=O)n4C)cn1 [AZD0156] + C=CCn1c(=O)c2cnc(Nc3ccc(N4CCN(C)CC4)cc3)nc2n1-c1cccc(C(C)(C)O)n1 [AZD1775] (first compound max 1 µM, partner max 1 µM) | -0.0386 | -0.051 | 0.001 | -0.0507 | -0.0482 | -0.0245 | -0.0406 | -0.0958 | -0.0937 | -0.0484 | -0.0289 | -0.0214 | -0.0027 | 0.0097 | -0.0627 | – | -0.0055 | -0.0544 | -0.036 | -0.0401
10 | Cc1c2c(nn1C)CSCc1cc(n(C)n1)CSc1cc(c3ccccc3c1)OCCCc1c(C(=O)O)n(C)c3c-2c(Cl)ccc13 [AZD5991] + C=CCn1c(=O)c2cnc(Nc3ccc(N4CCN(C)CC4)cc3)nc2n1-c1cccc(C(C)(C)O)n1 [AZD1775] (first compound max 1 µM, partner max 1 µM) | 0.0496 | -0.0454 | -0.003 | -0.0132 | -0.0383 | -0.0102 | -0.0549 | 0.034 | -0.02 | -0.0506 | -0.0121 | 0.0063 | -0.023 | -0.0098 | -0.0393 | 0.0392 | – | 0.0385 | -0.0123 | -0.0839
11 | COc1cccc(OCCCN)c1-c1cc(Nc2cnc(C#N)cn2)n[nH]1 [Prexasertib] + O=C(c1cc(Cc2n[nH]c(=O)c3ccccc23)ccc1F)N1CCN(C(=O)C2CC2)CC1 [Olaparib] (first compound max 1 µM, 7x7, partner max 10 µM) | 0.0491 | -0.0595 | -0.0162 | -0.0206 | -0.0658 | -0.0677 | -0.0746 | 0.0018 | 0.0405 | -0.0973 | -0.0494 | -0.0097 | -0.126 | -0.0819 | -0.0407 | – | -0.0358 | -0.0339 | -0.0181 | -0.153
12 | COc1cccc(OCCCN)c1-c1cc(Nc2cnc(C#N)cn2)n[nH]1 [Prexasertib] + CN(C)CCCOc1ccc(-c2ccc3ncc4c(c3c2)n(C2CCOCC2)c(=O)n4C)cn1 [AZD0156] (first compound max 1 µM, 7x7, partner max 1 µM) | -0.0386 | 0.0713 | -0.0071 | -0.0532 | -0.0009 | 0.021 | 0.0111 | -0.022 | -0.026 | 0.0033 | 0.0756 | -0.015 | 0.011 | -0.0093 | -0.0178 | – | -0.0165 | -0.0037 | -0.0159 | -0.0336
13 | CC(=O)c1c(C)c2cnc(Nc3ccc(N4CCNCC4)cn3)nc2n(C2CCCC2)c1=O [Palbociclib] + CN(CC[C@H](CSC1=CC=CC=C1)NC2=C(C=C(C=C2)S(=O)(=O)NC(=O)C3=CC=C(C=C3)N4CCC(CC4)[C@H](C5=CC=CC=C5C6=CC=C(C=C6)Cl)O)S(=O)(=O)C(F)(F)F)CCO [AZD4320] (first compound max 10 µM, 7x7, partner max 1 µM) | -0.109 | -0.074 | -0.0718 | – | – | -0.0118 | 0.0594 | – | -0.01 | -0.0376 | -0.193 | 0.0866 | -0.0711 | -0.0373 | -0.109 | -0.0528 | 0.0312 | -0.0614 | – | –
14 | COc1nnc2ccc(N3CCC(c4ccc(OCCN5CCN(C)C(=O)[C@H]5C)cc4)CC3)nn12 [AZD5153] + CN(CC[C@H](CSC1=CC=CC=C1)NC2=C(C=C(C=C2)S(=O)(=O)NC(=O)C3=CC=C(C=C3)N4CCC(CC4)[C@H](C5=CC=CC=C5C6=CC=C(C=C6)Cl)O)S(=O)(=O)C(F)(F)F)CCO [AZD4320] (first compound max 1 µM, 7x7, partner max 1 µM) | 0.0321 | 0.0559 | -0.0177 | – | – | 0.0033 | -0.0413 | – | -0.0001 | 0.0754 | 0.0491 | 0.0807 | 0.0066 | -0.0557 | -0.042 | 0.099 | 0.0467 | 0.0342 | – | –
15 | CCN(CCO)CCCOc1ccc2c(Nc3cc(CC(=O)Nc4cccc(F)c4)[nH]n3)ncnc2c1 [AZD2811] + C[C@@H]1COCCN1C2=NC(=NC(=C2)C3(CC3)[S@](=N)(=O)C)C4=C5C=CNC5=NC=C4 [AZD6738] (first compound max 1 µM, 7x7, partner max 10 µM) | -0.0466 | -0.067 | -0.0145 | -0.0424 | -0.0091 | -0.0831 | 0.0347 | -0.107 | -0.0356 | -0.0087 | -0.0939 | -0.0339 | -0.0484 | -0.0611 | -0.0319 | – | -0.0291 | -0.0526 | -0.0594 | -0.122
